Among the test systems are NCI-H522 lung; COLO 205 colon; SF-539 CNS; CCRF-CEM leukemia; HL-60(TB) leukemia; SK-MEL-28 melanoma; SW-620 colon; OVCAR-5 ovarian; NCI-H226 lung; HOP-92 NSCLC.
Holding throughout (test): DTP human tumour cell line panel, 48 h

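Grown in 96-well plates, cells were treated for 48 hours with each compound at five concentrations. Insufficient inhibition: endpoint recorded as highest concentration tested. At the GI50, growth is halved. TGI denotes the concentration required for complete inhibition of growth.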 Bounds are passed on as bounds.

One may read the TGI as the concentration at which net growth stops. High values mean less potent growth arrest, low ones more potent growth arrest. In the case of `CCOC(=O)COc1cccc2c1C(=O)CCO2`, the total growth inhibition concentration (TGI) in the test with NCI-H522 lung, with COLO 205 colon, in the test with SF-539 CNS, in the test with CCRF-CEM leukemia, in the test on HL-60(TB) leukemia and in the test with SK-MEL-28 melanoma was greater than 100 µM throughout. Also, the concentration for total growth inhibition (TGI) in the test on SW-620 colon and in the test with OVCAR-5 ovarian was greater than 100 µM in each case.
`CC(=O)N1[C@H](C(=O)O)CS[C@H]1c1ccncc1`: the total growth inhibition concentration (TGI) in the test on COLO 205 colon, with SF-539 CNS, in the test with NCI-H226 lung, in the test with CCRF-CEM leukemia, with HL-60(TB) leukemia and in the test on SK-MEL-28 melanoma was greater than 100 µM in each case. Also, the total growth inhibition concentration (TGI) in the test on SW-620 colon, in the test with OVCAR-5 ovarian and with HOP-92 NSCLC was greater than 100 µM in each case.
Consider `CC(=O)C(CN(C(C)C)C(C)C)C(c1ccccc1)c1c(O)c2ccccc2oc1=O` (centres undefined), for which the concentration for total growth inhibition (TGI) in the test on NCI-H522 lung, in the test on COLO 205 colon, in the test on SF-539 CNS, in the test on NCI-H226 lung, with CCRF-CEM leukemia and in the test on HL-60(TB) leukemia was greater than 100 µM in each case. For the same compound, the TGI in the test with SK-MEL-28 melanoma, with SW-620 colon and in the test with OVCAR-5 ovarian was greater than 100 µM each time.
Take `Nc1ccc(C(=O)N/C(=C\c2ccc3c(c2)OCO3)c2nc3[nH]c(=S)[nH]c(=O)c3[nH]2)cc1`: the TGI with NCI-H522 lung, in the test with COLO 205 colon, with SF-539 CNS, in the test with CCRF-CEM leukemia, in the test on SK-MEL-28 melanoma and in the test with SW-620 colon was greater than 100 µM in each case. The TGI with OVCAR-5 ovarian and in the test on HOP-92 NSCLC was greater than 100 µM in each case.
As for `CCN(CC)CC(C(=O)Nc1c(C)cccc1C)/C(C)=N\NC(=O)C[N+](C)(C)C` (centres undefined), the TGI in the test on NCI-H522 lung, in the test on COLO 205 colon, in the test on SF-539 CNS, in the test with NCI-H226 lung, in the test with HL-60(TB) leukemia and in the test on SK-MEL-28 melanoma was greater than 100 µM in each case. Besides, the TGI with SW-620 colon, with OVCAR-5 ovarian and in the test with HOP-92 NSCLC was greater than 100 µM each time.
As a reminder, the GI50 is the concentration giving 50% growth inhibition. `Oc1ccc(Cl)cc1-c1cc(-c2ccccc2Cl)[nH]n1`: the GI50 in the test on NCI-H522 lung was 3.26 µM; in the test with COLO 205 colon, 27.3 µM; in the test with NCI-H226 lung, 13.8 µM; in the test with CCRF-CEM leukemia, 2.71 µM; in the test on HL-60(TB) leukemia it was 4.22 µM; in the test on SK-MEL-28 melanoma, greater than 100 µM. Besides, the GI50 is 77.2 µM with SW-620 colon and 8.88 µM in the test with OVCAR-5 ovarian. For the same compound, the TGI in the test on NCI-H522 lung, with COLO 205 colon, in the test on NCI-H226 lung, with CCRF-CEM leukemia, with HL-60(TB) leukemia and with SK-MEL-28 melanoma was greater than 100 µM each time. Also, the TGI in the test on SW-620 colon and with OVCAR-5 ovarian was greater than 100 µM in each case.
Regarding `FC(F)(F)c1ccc(C2SCc3nc4ccccc4n32)cc1` (centres undefined), the TGI was greater than 100 µM in the test with COLO 205 colon; greater than 100 µM in the test with SF-539 CNS; greater than 100 µM in the test with NCI-H226 lung; greater than 100 µM in the test with CCRF-CEM leukemia; 96.2 µM in the test on HL-60(TB) leukemia; greater than 100 µM in the test on SK-MEL-28 melanoma. The TGI was greater than 100 µM with SW-620 colon, greater than 100 µM in the test with OVCAR-5 ovarian and 48.8 µM in the test with HOP-92 NSCLC.
As to `C/C(CCn1[nH]c(=O)ccc1=O)=N\O`, the TGI with SF-539 CNS, in the test on NCI-H226 lung, in the test on CCRF-CEM leukemia, in the test with HL-60(TB) leukemia, in the test on SK-MEL-28 melanoma and in the test on SW-620 colon was greater than 100 µM throughout. Further, the TGI in the test with OVCAR-5 ovarian and in the test with HOP-92 NSCLC was greater than 100 µM in each case.
`c1cc2c(cc1NC1=NCCO1)CCC2`: the TGI in the test with COLO 205 colon, in the test on SF-539 CNS, in the test with CCRF-CEM leukemia, in the test on HL-60(TB) leukemia, in the test with SK-MEL-28 melanoma and with SW-620 colon was greater than 10 µM throughout. This compound showed a TGI in the test on HOP-92 NSCLC greater than 10 µM.
Take `NC(CCc1nc(-c2ccc(Cl)cc2)cs1)C(=O)O` (centres undefined): the total growth inhibition concentration (TGI) in the test with NCI-H522 lung, with COLO 205 colon, in the test with NCI-H226 lung, with CCRF-CEM leukemia, in the test on HL-60(TB) leukemia and with SK-MEL-28 melanoma was greater than 100 µM in each case. Further, the TGI in the test with SW-620 colon, with OVCAR-5 ovarian and in the test with HOP-92 NSCLC was greater than 100 µM each time.
Regarding `COc1ccc2c(c1)C1(C=N2)CCN(C(C)=O)CC1`, the concentration for total growth inhibition (TGI) with COLO 205 colon, with SF-539 CNS, in the test on CCRF-CEM leukemia, in the test with HL-60(TB) leukemia, with SK-MEL-28 melanoma and in the test on SW-620 colon was greater than 100 µM each time. The total growth inhibition concentration (TGI) in the test with OVCAR-5 ovarian and in the test on HOP-92 NSCLC was greater than 100 µM each time.
For the compound `COC(=O)[C@@]12C3=NO[C@]1(C(=O)OC)C(O[Si](C)(C)C(C)(C)C)[C@H]1OC(C)(C)O[C@H]1[C@@H]2C(OCc1ccccc1)CC3` (some centres undefined), the TGI with COLO 205 colon, in the test on SF-539 CNS, in the test on NCI-H226 lung, in the test on CCRF-CEM leukemia, in the test on HL-60(TB) leukemia and in the test with SK-MEL-28 melanoma was greater than 100 µM each time. Moreover, the values for the TGI in the test on SW-620 colon and in the test on HOP-92 NSCLC were greater than 100 µM and 22.6 µM, respectively.
As for `O=C(O)CCSC(=O)Nc1cccc(F)c1`, the TGI with COLO 205 colon, with SF-539 CNS, with NCI-H226 lung, with CCRF-CEM leukemia, in the test with HL-60(TB) leukemia and in the test with SK-MEL-28 melanoma was greater than 100 µM in each case. For the same compound, the TGI in the test with SW-620 colon and in the test on OVCAR-5 ovarian was greater than 100 µM in each case.
Take `COc1cc2cnc3c4cc(OC(C)C)c(OC)cc4ccc3c2cc1OC`: the TGI in the test with NCI-H522 lung, in the test with COLO 205 colon, in the test on SF-539 CNS, in the test with CCRF-CEM leukemia, in the test on SK-MEL-28 melanoma and with SW-620 colon was greater than 100 µM each time. Further, in the test with OVCAR-5 ovarian, the TGI is greater than 100 µM.
As to `CC1=C(C#N)C23C(=O)c4ccccc4C(O)=C2C(=O)C=CC3(O)N1Cc1ccccc1` (centres undefined), the GI50 in the test on NCI-H522 lung was 22.9 µM; in the test with COLO 205 colon it was 16.6 µM; in the test with SF-539 CNS, 48.2 µM; in the test on HL-60(TB) leukemia, 37.8 µM; in the test on SK-MEL-28 melanoma, 57.1 µM; with SW-620 colon, 37.1 µM. Moreover, the GI50 in the test with OVCAR-5 ovarian is 30.3 µM; with HOP-92 NSCLC, 39.4 µM. Further, the TGI in the test on NCI-H522 lung was 58.1 µM; with COLO 205 colon, 34.4 µM; in the test with SF-539 CNS, greater than 100 µM; in the test with HL-60(TB) leukemia it was greater than 100 µM; with SK-MEL-28 melanoma it was greater than 100 µM; with SW-620 colon, greater than 100 µM. For the same compound, the TGI in the test on OVCAR-5 ovarian and in the test on HOP-92 NSCLC was greater than 100 µM throughout.

The values are drawn from PubChem BioAssay (NCI).
